Literature values as cited in patent US20030032674A1, “Use of unsaturated fatty acids to treat severe inflammatory diseases” (priority 2001, published 2003).

Legend:
[1] = infusion; cited from earlier work
[2] = tested on: natural killer cell activity; settings: infusion; mice and humans; cited from earlier work
platelet aggregation = settings: infusion; cited from earlier work

In the case of “1,2,3-trieicosapentaenoyl-glycerol [EPA-TG]”, the “urinary concentration of prostaglandin I3 and thromboxane A3” value [1] is given as “increase”, the “natural killer cell activity” value [2] is given as “inhibit” and the platelet aggregation (platelet aggregation) is given as “decrease”.
